Experimental data from patent publication US20080269102A1, “3-(2-Alkoxycarbonyloxy-Phenyl) Acrylic Acid Esters And Their Use As Precursors For The Delivery Of Olfactory Compounds” (GIVAUDAN SA, priority 2004, published 2008).

What was measured:
[1] = UV-spectra / colour comparison of protected and non-protected fragrance precursor in presence of a fabric conditioner; format: physicochemical; conditions: 0.1 mg/ml in CH3CN/H2O (3:2), visually judged
Protocol: UV-Spectra Comparison (Protected/Non Protected Fragrance in Presence of a Fabric Conditioner)
Solutions A to D, 5 ml each, were prepared using CH3CN/H2O (3:2) as a solvent and their colour visually judged.
After adding a fabric conditioner to a solution comprising an unprotected fragrance precursor (solution A/B) the solution turned bright yellow, whereas a solution comprising a protected fragrance precursor (solution C/D) remains colourless.
The UV-spectra of solutions A to D were recorded and are depicted in FIG. 1.

[2] = additive fabric conditioner (30 mg)

SMILES | Colour [1, 2] | Colour ([1]; additive none) | melting point [°C]
C=CCCCCCCCCOC(=O)C=Cc1ccccc1O [Example 2, 3-(2-Hydroxy-phenyl)acrylic acid dec-9-enyl ester] | Bright | colourless | 58
C=CCCCCCCCCOC(=O)C=Cc1ccccc1OC(=O)Oc1ccccc1C=CC(=O)OCCCCCCCCC=C [Example 3] | colourless | colourless | –
CC(C)=CCCC(C)CCOC(=O)C=Cc1ccccc1O (stereo not drawn) [Example 1, 3-(2-Hydroxy-phenyl)acrylic acid 3,7-dimethyl-oct-6-enyl ester] | – | – | 37 to 39
